Results published in publication PMC10308239, “Light-driven Proton Pumps as a Potential Regulator for Carbon Fixation in Marine Diatoms” (Microbes and Environments, 2023).

Experiments:
PngR = molecular target: T1, PngR (Pseudo-nitzschia granii, UniProt A0A0A7RP02); assay: HPLC of retinal oxime isomers from purified holoprotein; absorption spectrum; format: binding; conditions: covalent; chromophore; light- and dark-adapted samples; 50 mM Tris-HCl pH 7.0, 1 M NaCl, 0.05% DDM
T1 construct: gene RHO; full length, E. coli codon-optimised, C-terminal His6 tag (pET21a NdeI-XhoI), expressed in E. coli BL21(DE3) with all-trans retinal, purified in DDM

Asp91 (position 91, …) = assay: UV-vis; conditions: room temperature (approximately 25°C), 1 M NaCl, Buffer A: 50 mM Tris-HCl, 0.05% (w/v) DDM, pH adjusted by addition of HCl, Dark/ground (unphotolysed) state with all-trans retinal, measured under room light, DDM-solubilised, folded (reversibility checked)

Molecule | HPLC of retinal oxime isomers from purified holoprotein; absorption spectrum (PngR) | pKa (Asp91 (position 91, …))
CC1=C(/C=C/C(C)=C/C=C/C(C)=C/C=O)C(C)(C)CCC1 [all-trans retinal] | In light- and dark-adapted samples, the isomeric state of retinal was predominantly all-trans | 
PngR (Pseudo-nitzschia granii rhodopsin, xanthorhodopsin-like light-driven proton pump) (Pseudo-nitzschia granii) (protein) MVTANQFTIVYDVLSFSLATMMATTIFLWMRVPSVHEKYKSALIISGLVTFIAAYHYLRIFNSWTEAYEWTAEGELSATASPFNDAYRYMDWLLTVPLLLIEIILVMKLPADESRSKATTLGIASAAMIAIGYPGELAMSDDSLGTRWVYWIGAMLPFLYIVQTLLVGLNDATQSEADPAIRDLIKGVQWWTVISWCTYPVVYVFPMMGITGTNAIVGIQLGYSVSDIISKCGVGLMIYQITIAKSYALKKGNEETPLYG |  | approximately 5.0
